Legend:
[1] = test system: ocular normotensive cynomolgus monkeys; experiment: Intraocular pressure after single periorbital dose (Example 1); assay type: in vivo, cynomolgus monkey; conditions: single periorbital dose of 10, 20 and 30 micrograms (similar extent), right eye (OD)
Excerpt: FIG. 2 compares the effect of 9 micrograms bimatoprost (30 pi of 0.03% Lumigan® ophthalmic solution) topical ocular surface administration once daily per eye for 4 days with single dose periorbital skin administration of [(3′-fluoro-4-fluorobiphenyl-3-carbonyl) amino] phenoxyacetic acid isopropyl ester ointment at 10 micrograms, 20 micrograms or 30 micrograms [(3′-fluoro-4-fluorobiphenyl-3-carbonyl) amino] phenoxyacetic acid isopropyl ester on intraocular pressure (TOP) in ocular normotensive Cynomolgus monkeys (Mean±SEM, n=4/group).
(§1) Ocular normotensive cynomolgus monkeys were administered a single dose of JV-GL1 Ointment (20% medium-chain triglycerides and 80% petrolatum (v/v)) to the periorbital skin of the right eye (OD) at JV-GL1 doses of 10 micrograms, 20 micrograms, and 30 micrograms and TOP was measured; Lumigan® eye drops were used as a comparator. […] Compared with baseline, IOP was decreased in the eyes (OD) of animals treated with 10 micrograms, 20 micrograms, and 30 micrograms JVGL-1 to a similar extent (approximately 60%) whereas a much lower decrease occurred for Lumigan® (approximately 30%).

[2] = test system: ocular normotensive cynomolgus monkeys; experiment: Intraocular pressure after once daily periorbital 0.2 μg/eye ointment (Example 2); assay type: in vivo, cynomolgus monkey
Description: Animals were unilaterally treated via periorbital skin administration of [(3′-fluoro-4-fluorobiphenyl-3-carbonyl) amino] phenoxyacetic acid isopropyl ester ointment once daily on Days 15-21. The right eye of the control group (Group 2) received ointment vehicle once daily on Days 8-14 and no treatment on Days 15-21. OD=right eye.
Ocular normotensive cynomolgus monkeys (Group 1, n=3) were unilaterally treated via periorbital skin administration of JV-GL1 ointment once daily in an amount of 0.2 μg in the right eye on Days 15-21 of a study, the results of which are shown in FIG. 3. JV-GL1 was administered as an ointment (20% medium-chain triglycerides and 80% petrolatum (v/v)). The animals were untreated on days 8-14 and IOP monitored daily. Group 2 (n=3) was administered vehicle ointment alone on days 8-14, followed by no treatment on days 15-21 of the study.

[3] = test system: human subjects; experiment: Tolerability in human subjects during periorbital dosing (Example 6); assay type: in vivo; conditions: Groups 1-4, during the dosing period
Description: (§2) Human subjects were treated with JV-GL1 ointment (20% medium-chain triglycerides and 80% petrolatum (v/v)) via periorbital skin administration to both eyes once daily. The human subjects were monitored daily for 9 days, with TOP measurements taken at 0 hours, 0.5 hours, 2 hours, and 8 hours from administration of the dose on Days 0, 1, and 9. IOP measurements were taken 0 hours from administration of the dose on Days 4 and 7.

[4] = test system: ocular normotensive cynomolgus monkeys; experiment: Local observations after low periorbital doses of ointment (0.2 to 5 micrograms/eye); assay type: in vivo, cynomolgus monkey
Description: Separately, ocular normotensive cynomolgus monkeys were administered single doses of the ointment at 0.6 micrograms, 2.0 micrograms or 5.0 micrograms per eye.

[5] = test system: ocular normotensive cynomolgus monkeys; experiment: Periorbital skin and pupil observations after single periorbital dose of 10-30 micrograms (Example 1); assay type: in vivo, cynomolgus monkey
Description: as §1
The incidence rate of pupil constriction in the three test article groups was 100% after 2-3 hours post-dosing.

[6] = test system: monkey; experiment: Monkey study of periorbital skin administration versus eye drops; assay type: in vivo; conditions: essentially equal doses
[7] = test system: human subjects; experiment: IOP in human subjects after once daily periorbital ointment (Example 6); assay type: in vivo
Description: as §2

[8] = target: T1, human recombinant EP2 receptors (Homo sapiens, UniProt P43116); conditions: cited from earlier work
T1 construct: expressed in transfected cells; host or cells: HEK cells
T1 sequence (P43116 whole entry): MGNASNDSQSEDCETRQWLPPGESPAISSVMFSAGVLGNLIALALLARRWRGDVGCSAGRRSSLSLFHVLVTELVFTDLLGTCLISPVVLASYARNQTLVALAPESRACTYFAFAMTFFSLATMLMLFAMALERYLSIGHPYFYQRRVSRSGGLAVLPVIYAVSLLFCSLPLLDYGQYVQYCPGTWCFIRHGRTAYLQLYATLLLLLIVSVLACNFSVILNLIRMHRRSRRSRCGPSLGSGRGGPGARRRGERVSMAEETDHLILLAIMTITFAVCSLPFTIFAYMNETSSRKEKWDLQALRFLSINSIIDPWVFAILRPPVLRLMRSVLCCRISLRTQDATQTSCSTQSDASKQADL

[9] = target: T2, EP1 receptors (Homo sapiens, UniProt P34995); conditions: Woodward et al., 2019; cited from earlier work
T2 sequence (P34995 1-402): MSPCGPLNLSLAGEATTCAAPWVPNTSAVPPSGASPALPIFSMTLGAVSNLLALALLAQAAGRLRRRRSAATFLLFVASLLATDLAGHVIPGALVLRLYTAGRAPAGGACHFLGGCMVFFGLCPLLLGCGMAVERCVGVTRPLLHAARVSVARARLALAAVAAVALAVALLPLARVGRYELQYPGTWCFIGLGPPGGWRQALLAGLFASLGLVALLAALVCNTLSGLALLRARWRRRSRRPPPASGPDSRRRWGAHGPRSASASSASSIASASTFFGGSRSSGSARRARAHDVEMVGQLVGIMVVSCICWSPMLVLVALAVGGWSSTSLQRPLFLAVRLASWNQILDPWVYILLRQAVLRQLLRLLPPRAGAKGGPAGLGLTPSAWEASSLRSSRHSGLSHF

[10] = target: EP4 receptors (Homo sapiens, UniProt P35408); conditions: Woodward et al., 2019; cited from earlier work
Sequence of EP4 receptors (P35408 whole entry): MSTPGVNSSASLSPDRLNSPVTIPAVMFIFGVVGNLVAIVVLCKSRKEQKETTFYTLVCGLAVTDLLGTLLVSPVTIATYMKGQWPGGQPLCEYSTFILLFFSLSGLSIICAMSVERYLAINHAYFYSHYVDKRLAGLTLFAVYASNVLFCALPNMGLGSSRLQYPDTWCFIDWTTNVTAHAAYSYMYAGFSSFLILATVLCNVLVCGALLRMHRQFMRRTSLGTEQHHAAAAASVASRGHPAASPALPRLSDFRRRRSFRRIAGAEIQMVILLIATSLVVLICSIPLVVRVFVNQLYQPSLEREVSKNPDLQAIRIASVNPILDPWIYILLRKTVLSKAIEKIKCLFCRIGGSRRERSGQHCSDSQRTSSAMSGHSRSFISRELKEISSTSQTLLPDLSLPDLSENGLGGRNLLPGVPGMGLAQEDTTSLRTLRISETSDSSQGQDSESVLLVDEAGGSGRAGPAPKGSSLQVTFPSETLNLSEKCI

[11] = target: IP receptors (Homo sapiens, UniProt P43119); conditions: Woodward et al., 2019; cited from earlier work
Sequence of IP receptors (P43119 whole entry): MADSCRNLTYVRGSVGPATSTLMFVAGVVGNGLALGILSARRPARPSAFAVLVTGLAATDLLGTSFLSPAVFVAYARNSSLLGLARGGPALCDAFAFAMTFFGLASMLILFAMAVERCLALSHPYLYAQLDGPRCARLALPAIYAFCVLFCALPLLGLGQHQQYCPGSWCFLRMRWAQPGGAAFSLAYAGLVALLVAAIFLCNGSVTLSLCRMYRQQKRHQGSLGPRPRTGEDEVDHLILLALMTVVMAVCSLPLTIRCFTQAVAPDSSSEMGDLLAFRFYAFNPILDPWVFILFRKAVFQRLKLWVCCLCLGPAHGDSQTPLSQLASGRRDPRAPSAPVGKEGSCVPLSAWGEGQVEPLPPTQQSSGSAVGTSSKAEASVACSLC

[12] = target: T3, TP receptors (Homo sapiens, UniProt P21731); conditions: Woodward et al., 2019; cited from earlier work
T3 sequence (P21731 1-343): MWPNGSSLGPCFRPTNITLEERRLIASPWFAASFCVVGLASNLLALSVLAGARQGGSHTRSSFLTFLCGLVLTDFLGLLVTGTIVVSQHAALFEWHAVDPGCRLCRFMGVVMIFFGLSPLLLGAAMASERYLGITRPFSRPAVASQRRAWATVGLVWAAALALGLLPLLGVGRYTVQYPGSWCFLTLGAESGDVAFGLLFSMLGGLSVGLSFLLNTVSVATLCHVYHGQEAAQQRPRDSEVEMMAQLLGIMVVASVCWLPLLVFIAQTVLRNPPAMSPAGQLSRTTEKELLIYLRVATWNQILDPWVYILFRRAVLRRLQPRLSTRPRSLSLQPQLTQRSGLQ

[13] = target: T4, EP3 receptors (Homo sapiens, UniProt P43115); conditions: Woodward et al., 2019; cited from earlier work
T4 sequence (P43115 1-390): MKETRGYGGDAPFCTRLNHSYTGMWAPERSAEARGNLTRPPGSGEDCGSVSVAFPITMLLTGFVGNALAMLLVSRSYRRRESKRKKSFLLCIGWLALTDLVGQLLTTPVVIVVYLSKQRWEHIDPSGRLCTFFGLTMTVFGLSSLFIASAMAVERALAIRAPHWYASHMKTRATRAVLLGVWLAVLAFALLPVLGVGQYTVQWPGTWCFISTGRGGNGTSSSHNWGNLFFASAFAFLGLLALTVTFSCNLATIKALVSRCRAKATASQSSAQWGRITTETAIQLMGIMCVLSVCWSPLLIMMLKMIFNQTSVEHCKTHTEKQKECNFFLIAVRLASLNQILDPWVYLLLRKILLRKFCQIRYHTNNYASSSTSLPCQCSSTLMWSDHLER

[14] = target: FP receptors (Homo sapiens, UniProt P43088); conditions: Woodward et al., 2019; cited from earlier work
Sequence of FP receptors (P43088 whole entry): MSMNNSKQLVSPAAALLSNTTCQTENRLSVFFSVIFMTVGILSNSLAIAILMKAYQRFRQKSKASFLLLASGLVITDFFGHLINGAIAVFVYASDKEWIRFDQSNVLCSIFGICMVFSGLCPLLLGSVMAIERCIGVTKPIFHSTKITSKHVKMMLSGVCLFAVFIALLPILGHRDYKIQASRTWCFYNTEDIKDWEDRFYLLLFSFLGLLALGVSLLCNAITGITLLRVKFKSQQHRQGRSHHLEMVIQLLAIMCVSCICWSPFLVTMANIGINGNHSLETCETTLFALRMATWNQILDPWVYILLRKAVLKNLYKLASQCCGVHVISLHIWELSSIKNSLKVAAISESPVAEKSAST

[15] = target: T5, DP receptors (Homo sapiens, UniProt Q13258); conditions: Woodward et al., 2019; cited from earlier work
T5 sequence (Q13258 1-359): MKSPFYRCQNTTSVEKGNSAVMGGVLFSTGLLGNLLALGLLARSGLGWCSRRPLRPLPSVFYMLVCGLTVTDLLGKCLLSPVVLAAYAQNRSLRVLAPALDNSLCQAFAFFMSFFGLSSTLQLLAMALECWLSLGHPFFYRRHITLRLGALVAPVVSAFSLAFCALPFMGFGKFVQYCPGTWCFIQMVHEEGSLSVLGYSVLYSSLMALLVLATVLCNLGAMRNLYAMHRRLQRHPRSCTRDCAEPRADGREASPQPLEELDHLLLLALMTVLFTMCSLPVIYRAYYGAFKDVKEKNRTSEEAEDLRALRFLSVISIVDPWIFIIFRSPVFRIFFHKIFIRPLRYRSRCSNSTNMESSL

[16] = 10, 20, 30 micrograms single dose

CC(C)OC(=O)COc1cccc(NC(=O)c2cc(-c3cccc(F)c3)ccc2F)c1 [JV-GL1, 3-[(3′-fluoro-4-fluorobiphenyl-3-carbonyl)amino] phenoxyacetic acid isopropyl ester]
IOP decrease compared with baseline [1]: approximately 60% | onset of marked decrease in IOP ([2]; 0.2 μg/eye (OD) once daily): as early as one day following initiation of treatment | IOP by the end of the study ([2]; 0.2 μg/eye (OD) once daily Days 15-21, from a starting point of ˜25 mmHg): ~10 mmHg | irritation or discomfort associated with AE of mild periorbital erythema [3]: did not report any irritation or discomfort | efficacy and local tolerability at lower doses ([4]; 0.2 to 5 micrograms/eye, periorbital): retained without obvious periorbital skin swelling and hyperemia of the periorbital skin and ocular surface | pupil constriction during the dosing period ([4]; eyes treated with either eye drops or ointment): persistent pupil constriction was observed | resolution of skin redness and swelling ([4]; single doses of ointment at 0.6, 2.0 or 5.0 micrograms per eye): disappeared a few hours to overnight after dosing | incidence rate of periorbital skin swelling, dose relation [5, 16]: showed a certain dose dependent relationship | recovery of periorbital skin redness [5, 16]: completely recovered by Day 2 | resolution of periorbital skin swelling [5, 16]: disappeared by Day 5 | incidence rate of periorbital skin redness ([5]; all three groups (10, 20, 30 micrograms), 2-3 hours post-dosing): 100% | recovery of pupil constriction ([5]; except a single animal in the high-dose group): recovered by Day 15 | local findings at 10 to 30 micrograms/eye ([5]; in ointment, periorbital, 10 to 30 micrograms/eye): modest pupil constriction, erythema of the ocular surface and periorbital skin, and swelling of the periorbital skin | incidence rate of pupil constriction ([5]; three groups (10, 20, 30 micrograms), after 2-3 hours post-dosing): 100% | efficacy of periorbital skin administration versus eye drops [6]: as effective as eye drops | average change in TOP ([7]; Group 1, 0.30 μg/eye/day over 9 days, 0 hours after dose): −6% | average change in TOP ([7]; Group 1, 0.30 μg/eye/day over 9 days, 0.5 hours after dose): −3% | average change in TOP ([7]; Group 1, 0.30 μg/eye/day over 9 days, 2 hours after dose): 0% | average change in TOP ([7]; Group 1, 0.30 μg/eye/day over 9 days, 8 hours after dose): −4% | average change in TOP ([7]; Group 2, 0.59 μg/eye/day over 9 days, 0 hours after dose): −14% | average change in TOP ([7]; Group 2, 0.59 μg/eye/day over 9 days, 0.5 hours after dose): −10% | average change in TOP ([7]; Group 2, 0.59 μg/eye/day over 9 days, 2 hours after dose): −16% | average change in TOP ([7]; Group 2, 0.59 μg/eye/day over 9 days, 8 hours after dose): −12% | average change in TOP ([7]; Group 3, 0.99 μg/eye/day over 9 days, 0 hours after dose): −11% | average change in TOP ([7]; Group 3, 0.99 μg/eye/day over 9 days, 0.5 hours after dose): −16% | average change in TOP ([7]; Group 3, 0.99 μg/eye/day over 9 days, 2 hours after dose): −16% | average change in TOP ([7]; Group 3, 0.99 μg/eye/day over 9 days, 8 hours after dose): −15% | average change in TOP ([7]; Group 4, 1.92 μg/eye/day over 9 days, 0 hours after dose): −19% | average change in TOP ([7]; Group 4, 1.92 μg/eye/day over 9 days, 0.5 hours after dose): −22% | average change in TOP ([7]; Group 4, 1.92 μg/eye/day over 9 days, 2 hours after dose): −20% | average change in TOP ([7]; Group 4, 1.92 μg/eye/day over 9 days, 8 hours after dose): −14% | average change in TOP ([7]; Group 5, 3.99 μg/eye/day over 9 days, 0 hours after dose): −13% | average change in TOP ([7]; Group 5, 3.99 μg/eye/day over 9 days, 0.5 hours after dose): −13% | average change in TOP ([7]; Group 5, 3.99 μg/eye/day over 9 days, 2 hours after dose): −18% | average change in TOP ([7]; Group 5, 3.99 μg/eye/day over 9 days, 8 hours after dose): −18% | dose dependence of TOP reduction ([7]; Groups 1, 2, 3 and 4 (0.30 to 1.92 μg/eye/day)): dose-dependent trend in TOP reduction

O=C(O)COc1cccc(NC(=O)c2cc(-c3cccc(F)c3)ccc2F)c1 [JV-GL1 free acid, 3-[(3′-fluoro-4-fluorobiphenyl-3-carbonyl)amino] phenoxyacetic acid]
maximal elevation of cAMP levels ([8]; HEK cells over-expressing human recombinant EP2 receptors, versus PGE2): comparable to that of the endogenous agonist PGE2 | EP2 receptor agonism ([8]; Woodward et al., 2019): potent and full EP2 receptor agonist | affinity for EP1 receptors [9]: negligible | affinity for EP4 receptors [10]: negligible | affinity for IP receptors [11]: negligible | affinity for TP receptors [12]: negligible | affinity for EP3 receptors [13]: negligible | affinity for FP receptors [14]: negligible | affinity for DP receptors [15]: negligible

From patent US20230372274A1, “COMPOSITIONS AND METHODS FOR PERIORBITAL ADMINISTRATION OF EP2 RECEPTOR AGONISTS” (JENIVISION INC., priority 2021, published 2023)
